Assays:
[1] = Toxicity in Sprague-Dawley rat model of DEN-induced liver fibrosis assessed as body weight loss at 3 to 10 mg/kg, po qd treated for 4 weeks; type: organism-based; conditions: in vivo, 672 h, dose 3-10 mg/kg
Cytochrome P450 2D6 = Cytochrome P450 2D6 (Homo sapiens, UniProt P10635); assay: Inhibition of CYP2D6 (unknown origin); type: ADME
[2] = Protein binding in monkey plasma; type: ADME, cell-free, Macaca mulatta; conditions: rhesus monkey, read-out: PPB (converted)
in vivo [3] = conditions: Sprague-Dawley, rat, plasma, po, 3 mg/kg
Description: Drug concentration in plasma of Sprague-Dawley rat at 3 mg/kg, po measured after 4 hrs by LC-MS/MS analysis

[4] = MRT (0 to t) in Sprague-Dawley rat at 1 mg/kg, iv measured for 0.25 to 24 hrs by LC-MS/MS analysis; type: ADME, organism-based; conditions: in vivo, time 0.25-24 hrs
[5] = Inhibition of fatty acid synthesis in human HepG2 cells preincubated for 1.5 hrs followed by [14C] acetate addition measured after 1.5 hrs by liquid scintillation counter analysis; type: functional, cell-based
Acetyl-CoA carboxylase 1 = Acetyl-CoA carboxylase 1 (Homo sapiens, UniProt Q13085)
Description: Inhibition of recombinant human ACC1 using acetyl-Co A as substrate incubated for 60 mins in presence of ATP by ADP-Glo assay

[6] = Half life in Sprague-Dawley rat at 3 mg/kg, po measured for 0.25 to 24 hrs by LC-MS/MS analysis; type: ADME, organism-based; conditions: in vivo, time 0.25-24 hrs
[7] = Protein binding in mouse plasma; type: ADME, cell-free; conditions: read-out: PPB (converted)
[8] = Biodistribution in 12 hr-fasted male wild-type Sprague-Dawley rat assessed as increase in ratio of drug concentration in kidney/plasma at 3 mg/kg, po measured after 4 hrs by LC-MS/MS analysis; type: ADME, organism-based; conditions: in vivo
[9] = Toxicity in Sprague-Dawley rat model of DEN-induced liver fibrosis assessed as animal mortality at 3 to 10 mg/kg, po qd treated for 4 weeks; type: organism-based; conditions: in vivo, 672 h, dose 3-10 mg/kg
Acetyl-CoA carboxylase 2 = Acetyl-CoA carboxylase 2 (Homo sapiens, UniProt O00763)
Description: Inhibition of recombinant human ACC2 using acetyl-Co A as substrate incubated for 60 mins in presence of ATP by ADP-Glo assay

[10] = Clearance in Sprague-Dawley rat at 1 mg/kg, iv measured for 0.25 to 24 hrs by LC-MS/MS analysis; type: ADME, organism-based; conditions: in vivo, time 0.25-24 hrs
[11] = Toxicity in Sprague-Dawley rat model of DEN-induced liver fibrosis assessed as drug tolerance at 3 to 10 mg/kg, po qd treated for 4 weeks; type: organism-based; conditions: in vivo, 672 h, dose 3-10 mg/kg
[12] = Intrinsic clearance in monkey liver microsomes; type: ADME, Macaca mulatta, Microsome; conditions: rhesus monkey, read-out: CLH
[13] = Half life in Sprague-Dawley rat at 1 mg/kg, iv measured for 0.25 to 24 hrs by LC-MS/MS analysis; type: ADME, organism-based; conditions: in vivo, time 0.25-24 hrs
[14] = Stability of compound assessed as remaining parent compound by measuring retention time; type: physicochemical
[15] = Volume of distribution in Sprague-Dawley rat at 1 mg/kg, iv measured for 0.25 to 24 hrs by LC-MS/MS analysis; type: ADME, organism-based; conditions: in vivo, time 0.25-24 hrs
[16] = Intrinsic clearance in rat liver microsomes; type: ADME, Microsome; conditions: read-out: CLH
[17] = Biodistribution in 12 hr-fasted male wild-type Sprague-Dawley rat assessed as increase in ratio of drug concentration in liver/plasma at 3 mg/kg, po measured for 0.25 to 4 hrs by LC-MS/MS analysis; type: ADME, organism-based; conditions: in vivo, time 0.25-4 hrs
[18] = Tmax in Sprague-Dawley rat at 3 mg/kg, po measured for 0.25 to 24 hrs by LC-MS/MS analysis; type: ADME, organism-based; conditions: in vivo, time 0.25-24 hrs
in vivo [19] = conditions: Sprague-Dawley, rat, liver, po, 3 mg/kg
Description: Drug concentration in liver of Sprague-Dawley rat at 3 mg/kg, po measured after 0.25 hrs by LC-MS/MS analysis

[20] = MRT (0 to t) in Sprague-Dawley rat at 3 mg/kg, po measured for 0.25 to 24 hrs by LC-MS/MS analysis; type: ADME, organism-based; conditions: in vivo, time 0.25-24 hrs
[21] = target: Voltage-gated inwardly rectifying potassium channel KCNH2 (Homo sapiens, UniProt Q12809); assay: Inhibition of hERG; type: toxicity
in vivo [22] = conditions: Sprague-Dawley, rat, plasma, po, 3 mg/kg; remark: listed apart in the source
Description: Drug concentration in plasma of Sprague-Dawley rat at 3 mg/kg, po measured after 1 hr by LC-MS/MS analysis

Cytochrome P450 2C9 = Cytochrome P450 2C9 (Homo sapiens, UniProt P11712); assay: Inhibition of CYP2C9 (unknown origin); type: ADME
[23] = Stability of compound assessed as compound isomerization by measuring retention time; type: physicochemical
in vivo [24] = conditions: Sprague-Dawley, rat, liver, po, 3 mg/kg; remark: listed apart in the source
Description: Drug concentration in liver of Sprague-Dawley rat at 3 mg/kg, po measured after 1 hr by LC-MS/MS analysis

Cytochrome P450 2C8 = target: T1, Cytochrome P450 2C8 (Homo sapiens, UniProt P10632); assay: Inhibition of CYP2C8 (unknown origin); type: ADME
T1 sequence (P10632 whole entry): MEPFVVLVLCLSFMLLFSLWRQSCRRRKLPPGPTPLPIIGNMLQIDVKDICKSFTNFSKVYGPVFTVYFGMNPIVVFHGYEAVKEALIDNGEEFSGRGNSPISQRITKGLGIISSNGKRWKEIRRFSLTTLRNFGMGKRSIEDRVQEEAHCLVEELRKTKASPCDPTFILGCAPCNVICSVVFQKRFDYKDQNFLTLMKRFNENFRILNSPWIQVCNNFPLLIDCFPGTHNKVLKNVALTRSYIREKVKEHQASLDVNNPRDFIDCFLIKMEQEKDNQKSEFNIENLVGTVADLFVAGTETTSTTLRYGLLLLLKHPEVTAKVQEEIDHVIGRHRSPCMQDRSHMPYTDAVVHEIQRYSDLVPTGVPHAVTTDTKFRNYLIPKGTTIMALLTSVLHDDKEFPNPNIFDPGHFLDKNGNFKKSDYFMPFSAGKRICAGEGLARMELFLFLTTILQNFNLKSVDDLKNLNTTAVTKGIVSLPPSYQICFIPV

[25] = Stability of compound assessed as (1S,3s)-3-(1-((R)-2-(2-hydroxyphenyl)-2-((tetrahydro-2H-pyran-4-yl)oxy)ethyl)-5-methyl-6-(oxazol-2-yl)-2,4-dioxo-1,4-dihydrothieno[2,3-d]pyrimidin-3(2H)-yl)-1-methylcyclobutane-1-carboxylic acid metabolite formation by measuring retention time; type: ADME
Cytochrome P450 3A4 [26] = target: T2, Cytochrome P450 3A4 (Homo sapiens, UniProt P08684); assay: Inhibition of CYP3A4 (unknown origin) using testosterone as substrate; type: ADME
[27] = AUC (0 to t) in Sprague-Dawley rat at 3 mg/kg, po measured for 0.25 to 24 hrs by LC-MS/MS analysis; type: ADME, organism-based; conditions: in vivo, time 0.25-24 hrs
Cytochrome P450 3A4 [28] = target: T2, Cytochrome P450 3A4; assay: Inhibition of CYP3A4 (unknown origin) using midazolam as substrate; type: ADME
[29] = Protein binding in human plasma; type: ADME, cell-free; conditions: read-out: PPB (converted)
[30] = Intrinsic clearance in mouse liver microsomes; type: ADME, Microsome; conditions: read-out: CLH
[31] = AUC (0 to t) in Sprague-Dawley rat at 1 mg/kg, iv measured for 0.25 to 24 hrs by LC-MS/MS analysis; type: ADME, organism-based; conditions: in vivo, time 0.25-24 hrs
[32] = Oral bioavailability in Sprague-Dawley rat at 3 mg/kg measured for 0.25 to 24 hrs by LC-MS/MS analysis; type: ADME, organism-based; conditions: in vivo, time 0.25-24 hrs

T2 sequence (P08684 whole entry): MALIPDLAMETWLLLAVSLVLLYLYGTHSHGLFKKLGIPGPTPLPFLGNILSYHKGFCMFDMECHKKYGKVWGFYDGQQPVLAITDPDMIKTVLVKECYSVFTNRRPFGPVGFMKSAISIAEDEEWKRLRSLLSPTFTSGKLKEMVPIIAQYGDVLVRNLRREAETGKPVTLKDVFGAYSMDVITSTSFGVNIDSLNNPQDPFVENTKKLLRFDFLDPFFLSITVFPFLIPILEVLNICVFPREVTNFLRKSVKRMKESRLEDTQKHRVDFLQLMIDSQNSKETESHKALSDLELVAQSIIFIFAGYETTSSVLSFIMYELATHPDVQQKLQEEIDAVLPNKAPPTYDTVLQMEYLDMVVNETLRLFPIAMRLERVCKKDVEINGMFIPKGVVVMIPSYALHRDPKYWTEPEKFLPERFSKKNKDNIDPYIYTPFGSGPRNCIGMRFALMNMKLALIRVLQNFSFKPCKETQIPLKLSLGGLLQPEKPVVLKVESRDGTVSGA
Voltage-gated inwardly rectifying potassium channel KCNH2, sequence (Q12809 whole entry): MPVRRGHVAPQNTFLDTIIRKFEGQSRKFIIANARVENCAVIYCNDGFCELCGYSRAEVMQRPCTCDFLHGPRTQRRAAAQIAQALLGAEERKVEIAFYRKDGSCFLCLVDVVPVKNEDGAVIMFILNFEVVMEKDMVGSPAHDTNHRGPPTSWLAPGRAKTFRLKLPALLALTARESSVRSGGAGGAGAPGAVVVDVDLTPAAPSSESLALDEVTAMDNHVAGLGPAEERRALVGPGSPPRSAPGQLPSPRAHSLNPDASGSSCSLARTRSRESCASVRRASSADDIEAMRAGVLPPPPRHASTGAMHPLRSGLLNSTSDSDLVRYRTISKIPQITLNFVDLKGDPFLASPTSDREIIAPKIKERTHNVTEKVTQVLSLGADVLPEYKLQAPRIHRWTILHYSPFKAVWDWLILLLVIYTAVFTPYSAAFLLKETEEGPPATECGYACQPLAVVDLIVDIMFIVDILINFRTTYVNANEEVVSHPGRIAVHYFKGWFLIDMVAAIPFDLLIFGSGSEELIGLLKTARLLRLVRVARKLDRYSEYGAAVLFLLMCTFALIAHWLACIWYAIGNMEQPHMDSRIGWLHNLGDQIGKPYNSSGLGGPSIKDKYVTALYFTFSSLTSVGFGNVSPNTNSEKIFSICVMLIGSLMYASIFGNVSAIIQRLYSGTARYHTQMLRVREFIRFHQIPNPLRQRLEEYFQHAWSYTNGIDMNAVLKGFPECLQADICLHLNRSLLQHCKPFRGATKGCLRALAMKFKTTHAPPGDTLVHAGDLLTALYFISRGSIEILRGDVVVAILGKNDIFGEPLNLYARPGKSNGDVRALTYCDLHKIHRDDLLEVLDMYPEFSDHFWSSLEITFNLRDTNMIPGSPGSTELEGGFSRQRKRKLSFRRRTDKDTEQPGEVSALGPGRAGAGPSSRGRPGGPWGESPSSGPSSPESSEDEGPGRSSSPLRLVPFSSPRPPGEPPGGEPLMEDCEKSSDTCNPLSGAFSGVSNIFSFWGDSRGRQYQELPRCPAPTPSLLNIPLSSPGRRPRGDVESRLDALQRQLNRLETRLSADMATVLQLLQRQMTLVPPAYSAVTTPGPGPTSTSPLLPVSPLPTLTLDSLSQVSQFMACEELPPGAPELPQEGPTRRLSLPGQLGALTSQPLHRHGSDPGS
Cytochrome P450 2D6, sequence (P10635 whole entry): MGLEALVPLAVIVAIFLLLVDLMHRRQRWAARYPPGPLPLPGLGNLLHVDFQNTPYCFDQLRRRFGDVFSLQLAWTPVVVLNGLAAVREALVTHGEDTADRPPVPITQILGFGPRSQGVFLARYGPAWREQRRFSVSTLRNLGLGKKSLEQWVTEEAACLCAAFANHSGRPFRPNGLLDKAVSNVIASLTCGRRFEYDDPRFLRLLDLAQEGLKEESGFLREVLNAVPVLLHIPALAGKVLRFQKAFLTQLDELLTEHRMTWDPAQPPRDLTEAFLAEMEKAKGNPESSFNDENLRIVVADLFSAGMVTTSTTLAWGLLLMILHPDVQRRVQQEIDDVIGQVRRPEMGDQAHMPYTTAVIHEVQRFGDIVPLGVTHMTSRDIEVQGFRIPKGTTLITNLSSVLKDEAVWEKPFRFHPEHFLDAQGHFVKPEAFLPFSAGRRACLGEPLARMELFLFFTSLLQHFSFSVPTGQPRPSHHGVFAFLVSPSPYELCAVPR
Acetyl-CoA carboxylase 2, sequence (O00763 whole entry): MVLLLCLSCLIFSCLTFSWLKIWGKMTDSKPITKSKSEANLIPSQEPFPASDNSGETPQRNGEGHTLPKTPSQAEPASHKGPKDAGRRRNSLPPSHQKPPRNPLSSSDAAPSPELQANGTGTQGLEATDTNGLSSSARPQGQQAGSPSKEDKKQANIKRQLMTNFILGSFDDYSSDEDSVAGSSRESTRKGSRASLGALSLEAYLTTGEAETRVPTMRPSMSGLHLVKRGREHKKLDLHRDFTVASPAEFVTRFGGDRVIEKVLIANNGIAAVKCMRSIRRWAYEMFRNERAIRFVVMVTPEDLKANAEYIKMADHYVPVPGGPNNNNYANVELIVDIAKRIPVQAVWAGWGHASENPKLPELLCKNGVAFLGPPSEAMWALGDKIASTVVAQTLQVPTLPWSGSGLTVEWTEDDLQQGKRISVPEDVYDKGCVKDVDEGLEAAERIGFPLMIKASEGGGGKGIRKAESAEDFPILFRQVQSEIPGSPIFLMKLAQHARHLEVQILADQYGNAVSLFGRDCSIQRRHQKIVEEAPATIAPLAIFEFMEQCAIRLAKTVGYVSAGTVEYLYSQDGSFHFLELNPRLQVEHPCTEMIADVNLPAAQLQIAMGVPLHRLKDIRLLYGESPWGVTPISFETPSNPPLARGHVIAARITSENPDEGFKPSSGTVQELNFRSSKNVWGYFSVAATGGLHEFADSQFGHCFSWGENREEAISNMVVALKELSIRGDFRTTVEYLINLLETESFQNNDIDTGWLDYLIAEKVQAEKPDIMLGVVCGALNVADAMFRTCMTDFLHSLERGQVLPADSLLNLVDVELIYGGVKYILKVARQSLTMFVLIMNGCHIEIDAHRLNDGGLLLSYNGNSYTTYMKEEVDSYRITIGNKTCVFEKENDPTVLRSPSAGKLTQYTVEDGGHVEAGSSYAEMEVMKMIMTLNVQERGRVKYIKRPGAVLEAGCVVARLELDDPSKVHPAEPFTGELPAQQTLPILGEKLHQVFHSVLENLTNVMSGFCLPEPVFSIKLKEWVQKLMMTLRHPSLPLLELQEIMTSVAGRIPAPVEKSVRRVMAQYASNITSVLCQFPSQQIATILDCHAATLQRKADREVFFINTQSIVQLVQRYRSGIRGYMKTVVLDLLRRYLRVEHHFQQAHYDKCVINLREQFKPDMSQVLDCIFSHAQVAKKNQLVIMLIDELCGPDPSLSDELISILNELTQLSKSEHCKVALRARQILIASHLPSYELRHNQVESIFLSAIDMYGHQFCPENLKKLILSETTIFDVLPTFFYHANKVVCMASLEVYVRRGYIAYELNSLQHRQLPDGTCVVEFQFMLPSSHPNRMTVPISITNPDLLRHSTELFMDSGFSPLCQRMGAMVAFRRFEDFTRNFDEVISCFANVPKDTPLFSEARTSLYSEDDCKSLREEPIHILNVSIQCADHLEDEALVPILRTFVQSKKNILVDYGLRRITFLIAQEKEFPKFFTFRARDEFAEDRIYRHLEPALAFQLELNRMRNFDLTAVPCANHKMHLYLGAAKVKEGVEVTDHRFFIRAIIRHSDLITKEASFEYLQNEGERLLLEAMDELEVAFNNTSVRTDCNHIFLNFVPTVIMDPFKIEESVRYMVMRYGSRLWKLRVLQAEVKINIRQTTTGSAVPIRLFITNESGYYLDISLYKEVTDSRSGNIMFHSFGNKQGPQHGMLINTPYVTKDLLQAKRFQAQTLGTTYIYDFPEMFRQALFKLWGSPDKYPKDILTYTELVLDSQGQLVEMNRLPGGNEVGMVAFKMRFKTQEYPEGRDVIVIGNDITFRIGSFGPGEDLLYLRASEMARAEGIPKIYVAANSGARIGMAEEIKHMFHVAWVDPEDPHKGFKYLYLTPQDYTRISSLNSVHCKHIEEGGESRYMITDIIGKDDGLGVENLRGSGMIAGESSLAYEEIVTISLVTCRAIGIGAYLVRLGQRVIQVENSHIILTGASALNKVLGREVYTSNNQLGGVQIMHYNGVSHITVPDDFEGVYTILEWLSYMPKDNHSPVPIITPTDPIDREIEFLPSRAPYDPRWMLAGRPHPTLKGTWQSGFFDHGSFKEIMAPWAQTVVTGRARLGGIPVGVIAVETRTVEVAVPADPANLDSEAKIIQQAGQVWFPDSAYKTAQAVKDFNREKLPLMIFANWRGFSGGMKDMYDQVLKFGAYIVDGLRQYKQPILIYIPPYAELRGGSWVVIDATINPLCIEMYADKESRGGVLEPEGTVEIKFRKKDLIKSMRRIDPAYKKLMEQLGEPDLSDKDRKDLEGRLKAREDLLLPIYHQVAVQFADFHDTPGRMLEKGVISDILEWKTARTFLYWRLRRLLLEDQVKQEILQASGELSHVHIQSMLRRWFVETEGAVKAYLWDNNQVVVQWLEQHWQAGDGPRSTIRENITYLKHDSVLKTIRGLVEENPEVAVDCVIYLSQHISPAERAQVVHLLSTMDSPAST
Cytochrome P450 2C9, sequence (P11712 whole entry): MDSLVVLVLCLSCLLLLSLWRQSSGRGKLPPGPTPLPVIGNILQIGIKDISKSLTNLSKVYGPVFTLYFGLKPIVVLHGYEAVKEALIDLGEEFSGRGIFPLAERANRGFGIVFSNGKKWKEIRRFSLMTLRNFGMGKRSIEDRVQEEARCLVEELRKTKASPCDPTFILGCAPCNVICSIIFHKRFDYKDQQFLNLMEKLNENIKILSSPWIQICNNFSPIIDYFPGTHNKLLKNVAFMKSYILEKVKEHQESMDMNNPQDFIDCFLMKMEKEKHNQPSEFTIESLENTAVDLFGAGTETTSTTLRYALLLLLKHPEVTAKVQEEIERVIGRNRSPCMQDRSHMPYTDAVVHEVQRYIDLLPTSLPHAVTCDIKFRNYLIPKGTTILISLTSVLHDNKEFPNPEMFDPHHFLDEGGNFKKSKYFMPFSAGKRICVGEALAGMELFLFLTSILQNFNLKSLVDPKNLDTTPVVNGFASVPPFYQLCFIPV

## COc1ccccc1[C@H](Cn1c(=O)n([C@H]2C[C@@](C)(C(=O)O)C2)c(=O)c2c(C)c(-c3ncco3)sc21)OC1CCOCC1
[1]
  Activity: Non-toxic
Cytochrome P450 2D6
  IC50: > 30 µM
[2]
  fraction unbound: 0.043
In vivo [3]
  concentration at 4 h: 72.8 ng/mL
[4]
  MRT last: 18 min
[5]
  IC50: 0.0069 µM
Acetyl-CoA carboxylase 1
  IC50: 0.00073 µM
[6]
  half-life: 198 min
[7]
  fraction unbound: 0.054
[8]
  Drug uptake: Not_active
[9]
  Activity: Non-toxic
Acetyl-CoA carboxylase 2
  IC50: 0.00374 µM
[10]
  clearance: 63.3 mL/min/kg
[11]
  Activity: Non-toxic
[12]
  CLint scaled: < 13 mL/min/kg
[13]
  half-life: 30 min
[14]
  Retention_time: 10.61 min
[15]
  Vd: 2.8 L/kg
[16]
  CLint scaled: < 17.3 mL/min/kg
[17]
  Drug uptake: Active
[18]
  Tmax: 24 min
In vivo [19]
  concentration at 0.25 h: 3390 ng/mL
[20]
  MRT last: 162 min
[21]
  IC50: > 30 µM
In vivo [22]
  concentration at 1 h: 56.8 ng/mL
Cytochrome P450 2C9
  IC50: > 30 µM
[23]
  Retention_time: 11.01 min
In vivo [24]
  concentration at 1 h: 2940 ng/mL
Cytochrome P450 2C8
  IC50: > 30 µM
[25]
  Retention_time: 9.36 min
Cytochrome P450 3A4 [26]
  IC50: > 30 µM
[27]
  AUC(0-t): 174 ng·h/mL
Cytochrome P450 3A4 [28]
  IC50: > 30 µM
[29]
  fraction unbound: 0.037
[30]
  CLint scaled: 44.4 mL/min/kg
[31]
  AUC(0-t): 263 ng·h/mL
[32]
  bioavailability: 22%

From ChEMBL document CHEMBL6134873, “Identification of Novel Cyclobutane-Based Derivatives as Potent Acetyl-CoA Carboxylase Allosteric Inhibitors for Nonalcoholic Steatohepatitis Drug Discovery” (J Med Chem, 2025)
